Data: ChEMBL document CHEMBL3352542, “Synthesis, biological evaluation and molecular modeling study of 2-(1,3,4-thiadiazolyl-thio and 4-methyl-thiazolyl-thio)-quinazolin-4-ones as a new class of DHFR inhibitors” (Bioorg Med Chem Lett, 2014)

Legend:
NCI-H522 = experiment: Growth inhibition of human NCI-H522 cells at 10 uM after 48 hrs; type: functional; settings: NCI-H522, 48 h, read-out: GI
[1] = Growth inhibition of human LOXIMVI cells at 10 uM after 48 hrs; type: functional; settings: LOX IMVI, read-out: GI
786-0 = experiment: Growth inhibition of human 786-0 cells at 10 uM after 48 hrs; type: functional; settings: 786-0, 48 h, read-out: GI
[2] = Growth inhibition of human UACC62 cells at 10 uM after 48 hrs; type: functional; settings: UACC-62, 48 h, read-out: GI
[3] = Growth inhibition of human UACC257 cells at 10 uM after 48 hrs; type: functional; settings: UACC-257, 48 h, read-out: GI
K562 = experiment: Growth inhibition of human K562 cells at 10 uM after 48 hrs; type: functional; settings: K562, 48 h, read-out: GI
[4] = Growth inhibition of human OVCAR4 cells at 10 uM after 48 hrs; type: functional; settings: OVCAR-4, 48 h, read-out: GI
Escherichia coli = experiment: Antimicrobial activity against Escherichia coli assessed as inhibition zone at 200 ug/disk after 24 hrs by disc-diffusion method; type: functional; settings: read-out: IZ
[5] = Growth inhibition of human Hs 578T cells at 10 uM after 48 hrs; type: functional; settings: read-out: GI
A549 = experiment: Growth inhibition of human A549 cells at 10 uM after 48 hrs; type: functional; settings: A549, 48 h, read-out: GI
T47D = experiment: Growth inhibition of human T47D cells at 10 uM after 48 hrs; type: functional; settings: read-out: GI
HL-60(TB) = experiment: Growth inhibition of human HL-60(TB) cells at 10 uM after 48 hrs; type: functional; settings: HL-60, 48 h, read-out: GI
[6] = Growth inhibition of human HCT15 cells at 10 uM after 48 hrs; type: functional; settings: HCT-15, 48 h, read-out: GI
[7] = Growth inhibition of human UO31 cells at 10 uM after 48 hrs; type: functional; settings: UO-31, 48 h, read-out: GI
SN12C = experiment: Growth inhibition of human SN12C cells at 10 uM after 48 hrs; type: functional; settings: read-out: GI
Pseudomonas aeruginosa = experiment: Antimicrobial activity against Pseudomonas aeruginosa assessed as inhibition zone at 200 ug/disk after 24 hrs by disc-diffusion method; type: functional; settings: read-out: IZ
SK-MEL-5 = experiment: Growth inhibition of human SK-MEL-5 cells at 10 uM after 48 hrs; type: functional; settings: SK-MEL-5, 48 h, read-out: GI
[8] = Growth inhibition of human OVCAR8 cells at 10 uM after 48 hrs; type: functional; settings: OVCAR-8, 48 h, read-out: GI
A498 = experiment: Growth inhibition of human A498 cells at 10 uM after 48 hrs; type: functional; settings: A498, 48 h, read-out: GI
MDA-MB-468 = experiment: Growth inhibition of human MDA-MB-468 cells at 10 uM after 48 hrs; type: functional; settings: MDA-MB-468, 48 h, read-out: GI
Staphylococcus aureus = experiment: Antimicrobial activity against Staphylococcus aureus assessed as inhibition zone at 200 ug/disk after 24 hrs by disc-diffusion method; type: functional; settings: read-out: IZ
[9] = Growth inhibition of human HCT116 cells at 10 uM after 48 hrs; type: functional; settings: HCT-116, 48 h, read-out: GI
[10] = Growth inhibition of human RXF393 cells at 10 uM after 48 hrs; type: functional; settings: RXF 393, 48 h, read-out: GI
[11] = Growth inhibition of human RPMI8226 cells at 10 uM after 48 hrs; type: functional; settings: RPMI-8226, 48 h, read-out: GI
MCF7 = experiment: Growth inhibition of human MCF7 cells at 10 uM after 48 hrs; type: functional; settings: MCF7, 48 h, read-out: GI
ACHN = experiment: Growth inhibition of human ACHN cells at 10 uM after 48 hrs; type: functional; settings: read-out: GI
[12] = Growth inhibition of human SF295 cells at 10 uM after 48 hrs; type: functional; settings: SF-295, 48 h, read-out: GI
U-251 = experiment: Growth inhibition of human U251 cells at 10 uM after 48 hrs; type: functional; settings: U-251, 48 h, read-out: GI
HT-29 = experiment: Growth inhibition of human HT-29 cells at 10 uM after 48 hrs; type: functional; settings: HT-29, 48 h, read-out: GI
Dihydrofolate reductase = biological target: T1, Dihydrofolate reductase (Bos taurus, UniProt P00376); experiment: Inhibition of bovine liver DHFR
T1 sequence (P00376 whole entry): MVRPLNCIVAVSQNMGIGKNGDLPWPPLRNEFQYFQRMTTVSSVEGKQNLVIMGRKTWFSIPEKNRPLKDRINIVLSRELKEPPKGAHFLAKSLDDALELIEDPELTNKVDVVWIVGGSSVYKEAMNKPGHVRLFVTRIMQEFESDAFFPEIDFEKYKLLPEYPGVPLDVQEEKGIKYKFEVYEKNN

[13] = Growth inhibition of human NCI-ADR-RES cells at 10 uM after 48 hrs; type: functional; settings: read-out: GI
[14] = Growth inhibition of human HOP92 cells at 10 uM after 48 hrs; type: functional; settings: HOP-92, 48 h, read-out: GI
Candida albicans = experiment: Antimicrobial activity against Candida albicans assessed as inhibition zone at 200 ug/disk after 24 hrs by disc-diffusion method; type: functional; settings: read-out: IZ
SNB-75 = experiment: Growth inhibition of human SNB75 cells at 10 uM after 48 hrs; type: functional; settings: SNB-75, 48 h, read-out: GI
[15] = Growth inhibition of human HCC2998 cells at 10 uM after 48 hrs; type: functional; settings: HCC 2998, 48 h, read-out: GI
[16] = Growth inhibition of human BT549 cells at 10 uM after 48 hrs; type: functional; settings: BT-549, 48 h, read-out: GI
[17] = Growth inhibition of human SF539 cells at 10 uM after 48 hrs; type: functional; settings: SF-539, 48 h, read-out: GI
M14 = experiment: Growth inhibition of human M14 cells at 10 uM after 48 hrs; type: functional; settings: M14, 48 h, read-out: GI
NCI-H226 = experiment: Growth inhibition of human NCI-H226 cells at 10 uM after 48 hrs; type: functional; settings: NCI-H226, 48 h, read-out: GI
[18] = Growth inhibition of human PC3 cells at 10 uM after 48 hrs; type: functional; settings: PC-3, 48 h, read-out: GI
[19] = Growth inhibition of human MOLT4 cells at 10 uM after 48 hrs; type: functional; settings: MOLT-4, 48 h, read-out: GI
[20] = Growth inhibition of human COLO205 cells at 10 uM after 48 hrs; type: functional; settings: COLO 205, 48 h, read-out: GI
Bacillus subtilis = experiment: Antimicrobial activity against Bacillus subtilis assessed as inhibition zone at 200 ug/disk after 24 hrs by disc-diffusion method; type: functional; settings: read-out: IZ
CCRF-CEM = experiment: Growth inhibition of human CCRF-CEM cells at 10 uM after 48 hrs; type: functional; settings: read-out: GI
SW-620 = experiment: Growth inhibition of human SW620 cells at 10 uM after 48 hrs; type: functional; settings: SW-620, 48 h, read-out: GI

COc1cc2nc(Sc3sc(N)nc3C)n(-c3ccc(Oc4ccccc4)cc3)c(=O)c2cc1OC
inhibition of growth at 10 µM (NCI-H522): 16.3%
inhibition of growth at 10 µM [1]: 21.7%
inhibition of growth at 10 µM (786-0): 20%
inhibition of growth at 10 µM [2]: 18.6%
inhibition of growth at 10 µM [3]: 10.3%
inhibition of growth at 10 µM (K562): 21.5%
inhibition of growth at 10 µM [4]: 49.3%
zone of inhibition at 200 µg/disc (Escherichia coli): 8 mm
inhibition of growth at 10 µM [5]: 11.6%
inhibition of growth at 10 µM (A549): 16.7%
inhibition of growth at 10 µM (T47D): 22.7%
inhibition of growth at 10 µM (HL-60(TB)): 21.2%
inhibition of growth at 10 µM [6]: 20.1%
inhibition of growth at 10 µM [7]: 23.9%
inhibition of growth at 10 µM (SN12C): 20.3%
zone of inhibition at 200 µg/disc (Pseudomonas aeruginosa): 8 mm
inhibition of growth at 10 µM (SK-MEL-5): 23.2%
inhibition of growth at 10 µM [8]: 15%
inhibition of growth at 10 µM (A498): 18%
inhibition of growth at 10 µM (MDA-MB-468): 19.9%
zone of inhibition at 200 µg/disc (Staphylococcus aureus): 8 mm
inhibition of growth at 10 µM [9]: 52.7%
inhibition of growth at 10 µM [10]: 14.1%
inhibition of growth at 10 µM [11]: 32.4%
inhibition of growth at 10 µM (MCF7): 25.7%
inhibition of growth at 10 µM (ACHN): 18.5%
inhibition of growth at 10 µM [12]: 14.6%
inhibition of growth at 10 µM (U-251): 12.4%
inhibition of growth at 10 µM (HT-29): 25%
IC50 (Dihydrofolate reductase): 6 µM
inhibition of growth at 10 µM [13]: 24.8%
inhibition of growth at 10 µM [14]: 20.5%
zone of inhibition at 200 µg/disc (Candida albicans): 8 mm
inhibition of growth at 10 µM (SNB-75): 13.3%
inhibition of growth at 10 µM [15]: 19.6%
inhibition of growth at 10 µM [16]: 28.7%
inhibition of growth at 10 µM [17]: 18.7%
inhibition of growth at 10 µM (M14): 18.5%
inhibition of growth at 10 µM (NCI-H226): 10.3%
inhibition of growth at 10 µM [18]: 34.9%
inhibition of growth at 10 µM [19]: 46.1%
inhibition of growth at 10 µM [20]: 24.1%
zone of inhibition at 200 µg/disc (Bacillus subtilis): 8 mm
inhibition of growth at 10 µM (CCRF-CEM): 35.5%
inhibition of growth at 10 µM (SW-620): 18.8%
